# Measured values as given in patent US9309231B2, “Bridged ring compounds as hepatitis C virus (HCV) inhibitors and pharmaceutical applications thereof” (SUNSHINE LAKE PHARMA CO., LTD, priority 2012, dated 2016).
# Legend:
# HCV GT1a replicon cells = assay: HCV replicon assay, GT1a replicon cells; assay type: cell-based; settings: Hepatitis C virus, 72 hours incubation, luciferase reporter or NEO gene qPCR readout, read-out: EC50 against HCV 1a genotype
# Procedure: (§1) An HCV Replicon assay was utilized in the present disclosure, and was prepared, developed and validated as described in Science, 1999, 285 (5424), 110-3 and J. Virol., 2003, 77 (5), 3007-19.
# (§2) HCV GT1a, GT1b and GT2a replicon cells were used to test the currently described compound series as well as wild-type cells HCV 1b and resistant cells Y^93H, L31F, P32L and I302V. GT1a and CT1b are HCV Replicon System which is transfected HCV 1a, 1b genotype respectively.
# (§3) 1. Testing EC50 of the Compounds by Luciferase Assay
# (§4) The GT1b cells and GT1a cells were seeded into 96-well plates (8,000 cells in 125 μl/well) respectively; each compound was diluted to desired concentration using 5-fold serial dilutions protocol, 10 dose in duplicate, and added to wells with POD™ 810 Plate Assembler. The final concentration of DMSO was 0.5%; the plates were incubated in a CO2 incubator for 72 hours; after that, 40 μl of Luciferase assay substrate (Promega Bright-Glo) was added to each well, and detected by a chemiluminescence detection system (Topcount Microplate Scintillation and Luminescence Counter) 5 minutes later; data analysis.
# (§5) 2. Testing EC50 of the Compounds by Detecting Antibiotic G418 Resistance Gene NEO Gene
# (§6) The GT1b cells and GT1a cells were seeded into 96-well plates (8,000 cells in 125 μl/well) respectively; each compound was diluted to desired concentration using 5-fold serial dilutions protocol, 10 dose in duplicate, and added to wells with POD™ 810 Plate Assembler., the final concentration of DMSO was 0.5%; the cells were incubated in a CO2 incubator for 72 hours; quantitative PCR. • Sample preparation: the supernatant was removed, 100 μl of FCW buffer solution was added to each well, washed carefully and discarded the solution; 50 μl of lysate FCP was added to each well, the cells was lysed as PCR template and diluted with DEPC water. • Quantitative PCR: preparation of reaction mixture according to PCR system; the reaction mixture was dispensed into a 384-well PCR reaction plate (specially for quantitative); and a standard template which was diluted in proportion was distributed into the plate; and the sample template was distributed into the plate; then the 384-well plate was sealed with closure plate membrane; the […] PCR machine was operated by procedures; data analysis.
# (§7) 3. Data Processing: The EC50 Values of Compounds were Analyzed by GraphPad Prism Software.
# HCV GT1b replicon cells = assay: HCV replicon assay, GT1b replicon cells; assay type: cell-based; settings: Hepatitis C virus, 72 hours incubation, luciferase reporter or NEO gene qPCR readout, read-out: EC50 against HCV 1b genotype
# Procedure: as §1, §2, §3, §4, §5, §6, §7
SMILES,EC50 (HCV GT1a replicon cells),EC50 (HCV GT1b replicon cells)
COC(=O)N[C@H](C(=O)N1C[C@@H](F)CC1c1ncc(-c2ccc(-c3ccc(-c4cnc(C5C[C@H](F)CN5C(=O)[C@@H](NC(=O)OC)C(C)C)[nH]4)c4c3C3CCC4C3)cc2)[nH]1)C(C)C (some centres unmarked) [Example 13],0.53 nM,0.034 nM
COC(=O)N[C@H](C(=O)N1CCCC1c1ncc(C#Cc2ccc(C#Cc3cnc([C@@H]4CCCN4C(=O)[C@@H](NC(=O)OC)C(C)C)[nH]3)c3c2C2CCC3C2)[nH]1)C(C)C (some centres unmarked) [Example 19],0.087 nM,0.026 nM
COC(=O)N[C@H](C(=O)N1CCC[C@H]1c1ncc(-c2ccc(-c3ccc(-c4ccc5nc([C@@H]6CCCN6C(=O)[C@@H](NC(=O)OC)C(C)C)[nH]c5c4)c4c3C3CCC4C3)s2)[nH]1)C(C)C (some centres unmarked) [Example 38],0.064 nM,0.017 nM
COC(=O)N[C@H](C(=O)N1CCC[C@H]1c1ncc(C#Cc2ccc(C#Cc3cnc([C@@H]4CCCN4C(=O)[C@@H](NC(=O)OC)C(C)C)[nH]3)c3c2C2CCC3N2C)[nH]1)C(C)C [Example 24],0.453 nM,0.096 nM
COC(=O)N[C@H](C(=O)N1CCS[C@H]1c1ncc(-c2ccc(-c3ccc(-c4cnc([C@@H]5SCCN5C(=O)[C@@H](NC(=O)OC)C(C)C)[nH]4)c4c3C3CCC4C3)cc2)[nH]1)C(C)C (some centres unmarked) [Example 46],0.439 nM,0.035 nM
COC(=O)N[C@H](C(=O)N1CCC[C@H]1C(=O)Nc1ccc(-c2ccc(-c3ccc(-c4cnc([C@@H]5CCCN5C(=O)[C@@H](NC(=O)OC)C(C)C)[nH]4)cc3)c3c2C2CCC3C2)cc1)C(C)C (some centres unmarked) [Example 49],0.855 nM,0.083 nM
COC(=O)N[C@H](C(=O)N1CCC[C@H]1c1ncc(-c2ccc(-c3ccc(-c4cnc([C@@H]5CCCN5C(=O)[C@@H](NC(=O)OC)C5CCCCC5)[nH]4)c4c3C3CCC4C3)cc2)[nH]1)C1CCCCC1 (some centres unmarked) [Example 10],0.374 nM,0.013 nM
COC(=O)N[C@H](C(=O)N1CCC[C@H]1c1ncc(-c2ccc(-c3ccc(-c4cnc([C@@H]5CCCN5C(=O)[C@@H](NC(=O)OC)C(C)C)[nH]4)c4c3C3CCC4CC3)cc2)[nH]1)C(C)C [Example 22],11.4 nM,0.004 nM
COC(=O)N[C@H](C(=O)N1CCC[C@H]1C(=O)Nc1cccc(-c2ccc(-c3ccc(-c4cnc([C@@H]5CCCN5C(=O)[C@@H](NC(=O)OC)C(C)C)[nH]4)cc3)c3c2C2CCC3C2)c1)C(C)C (some centres unmarked) [Example 16],3.5 nM,0.009 nM
COC(=O)N[C@H](C(=O)N1CCC[C@H]1c1ncc(-c2ccc(-c3ccc(-c4ccc(-c5cnc([C@@H]6CCCN6C(=O)[C@@H](NC(=O)OC)C(C)C)[nH]5)cc4)c4c3C3CCC4O3)cc2)[nH]1)C(C)C [Example 63],2.25 nM,0.815 nM
COC(=O)N[C@H](C(=O)N1CCCC1c1nc2ccc(-c3ccc(-c4ccc5nc([C@@H]6CCCN6C(=O)[C@@H](NC(=O)OC)C(C)C)[nH]c5c4)c4c3C3CCC4O3)cc2[nH]1)C(C)C (some centres unmarked) [Example 65],0.064 nM,0.013 nM
COC(=O)N[C@H](C(=O)N1CCC[C@H]1c1ncc(-c2ccc(-c3ccc(-c4cnc([C@@H]5CCCN5C(=O)[C@@H](NC(=O)OC)C(C)C)[nH]4)c4c3C3CCC4C3)s2)[nH]1)C(C)C (some centres unmarked) [Example 40],0.083 nM,0.012 nM
COC(=O)N[C@@H](C)C(=O)N1CCCC[C@H]1c1ncc(-c2ccc(-c3ccc(-c4ccc5nc([C@@H]6CCCCN6C(=O)[C@H](C)NC(=O)OC)[nH]c5c4)c4c3C3CCC4N3C)cc2)[nH]1 (some centres unmarked) [Example 35],0.103 nM,0.017 nM
COC(=O)N[C@H](C(=O)N1CCC[C@H]1c1ncc(-c2ccc(-c3nnc(-c4ccc5[nH]c([C@@H]6CCCN6C(=O)[C@@H](NC(=O)OC)C(C)C)nc5c4)c4c3C3CCC4CC3)cc2)[nH]1)C(C)C [Example 11],0.049 nM,0.023 nM
COC(=O)N[C@H](C(=O)N1CCC[C@H]1c1nc2ccc(-c3ccc(-c4ccc(-c5cnc([C@@H]6C7CCC(C7)N6C(=O)[C@@H](NC(=O)OC)C(C)C)[nH]5)cc4)c4c3C3CCC4C3)cc2[nH]1)C(C)C (some centres unmarked) [Example 1],0.029 nM,0.008 nM
[2H]C([2H])([2H])[C@]([2H])(NC(=O)OC)C(=O)N1C[C@@H](F)C[C@H]1c1ncc(-c2ccc(-c3ccc(-c4cnc([C@@H]5C[C@H](F)CN5C(=O)[C@@]([2H])(NC(=O)OC)C([2H])([2H])[2H])[nH]4)c4c3C3CCC4C3)cc2)[nH]1 (some centres unmarked) [Example 79],0.314 nM,0.043 nM
